Data published in article PMC8791477, “Evaluation of SARS-CoV-2 entry, inflammation and new therapeutics in human lung tissue cells” (PLoS Pathogens, 2022).
Counter-ions that a name gives are not always drawn.

How the values were obtained:
in vitro [1] = details: human, CC50 HLT
in vitro [2] = details: African green monkey
COVID-19 patients = details: cited from earlier work
thrombin = details: cited from earlier work
ACE2 expression = experiment: Modulation of ACE2 expression in enriched AT-II cells of HLT (flow cytometry); format: cell-based, human; details: 20h; for ACE2 expression after anti-inflammatory drugs (in words): 100μM to 0.8μM; for ACE2 expression in enriched AT-II cells after immune stimuli (in words): IL-1β 10 ng/ml, IL-10 and GM-CSF 100 ng/ml, IFN 100 U/ml
Protocol: VeroE6 and lung cells were incubated with five-fold serial dilutions of selected anti-inflammatory compounds (ranging from 100μM to 0.8μM) for 20h. […] For determination of ACE2 expression, the following surface staining antibodies were used: primary goat anti-ACE2 (R&D Systems), anti-CD45 (AF700, BioLegend), anti-EpCAM (APC, BioLegend), and anti-HLA-DR (BV421, BioLegend). For ACE2 detection, cells were then stained with secondary donkey anti-goat IgG (PE, R&D Systems) for 30 min at 4°C. A Fluorescent Minus One control (FMO) without primary anti-ACE2 antibody was used as a control. Cell viability was determined using an AQUA viability dye for flow cytometry (LIVE/DEAD fixable AQUA, Invitrogen). After fixation with PBS 2% PFA, cells were acquired in an LSR Fortessa (BD Biosciences) and analyzed using the FlowJo v10.6.1 software (TreeStar).

[3] = test system: IL-6 and CXCL10 expression; experiment: Immunomodulatory capacity: IL-6 and CXCL10 in LPS + IFN-γ stimulated HLT myeloid cells; format: cell-based, human; details: 20μM, LPS 50 ng/ml + IFN-γ 100 ng/ml, 20h
Protocol: HLT cells were cultured in a round-bottom 96-well plate containing 20 μM of cepharanthine, ergoloid, ciclesonide, hydroxychloroquine, ivermectin, or camostat mesylate alone or in combination with the stimuli LPS (50 ng/ml) and IFN-γ (100 ng/ml). For each patient, a negative control, cells treated with only medium, and a positive control, cells incubated in the presence of LPS and IFN-γ, were included. Immediately, brefeldin A (BD Biosciences) and monensin (BD Biosciences) were added to cells and cultured overnight at 37°C in 5% CO2. Next day, cellular suspensions were stained with the following antibodies: anti-CD11b (FITC, BioLegend), anti-CD69 (PE-CF594, BD Biosciences), anti-CD14 (APC-H7, BD Biosciences), anti-EpCAM (APC, BioLegend), anti-CD3 (BV650, BD Biosciences), anti-CD45 (BV605, BioLegend), and anti-HLA-DR (BV421, BioLegend). Cells were subsequently fixed and permeabilized using the Cytofix/Cytoperm kit (BD Biosciences) and intracellularly stained with anti-IL-6 (PE-Cy7, BioLegend), and anti-CXCL10 (PE, BioLegend). Cell viability was determined using an AQUA viability dye for flow cytometry (LIVE/DEAD fixable AQUA, Invitrogen). After fixation with PBS 2% PFA, cells were acquired in an LSR Fortessa (BD Biosciences), and data were analyzed using the FlowJo v10.6.1 software (TreeStar).

SARS-CoV-2 = details: cited from earlier work
[4] = test system: DNA-dependent DNA polymerases of some DNA viruses; details: cited from earlier work
HLT cells = details: for CC50: read-out: CC50 HLT, absence of virus
VeroE6 cells = details: for CC50: read-out: CC50 Vero E6, absence of virus
[5] = test system: SARS-CoV-2 clinical isolate; format: cell-based
[6] = 10µM, ref Hempel et al., Chemical Science 2021

Molecule: C[C@@H]1C[C@H]2[C@@H]3CCC4=CC(=O)C=C[C@]4(C)[C@@]3(F)[C@@H](O)C[C@]2(C)[C@@]1(O)C(=O)CO [Dexamethasone]
- CC50 (in vitro [1]; absence of virus): > 100 µM
- CC50 (in vitro [2]; CC50 Vero E6, absence of virus): > 100 µM
- 28-day mortality (in words) (COVID-19 patients; patients receiving invasive mechanical ventilation): decreased

Molecule: O=c1c(O)c(-c2cc(O)c(O)c(O)c2)oc2cc(O)cc(O)c12 [Myricetin]
- CC50 (in vitro [1]; absence of virus): > 100 µM
- CC50 (in vitro [2]; CC50 Vero E6, absence of virus): > 100 µM
- IC50 (thrombin): 56 µM

Molecule: CC(C)Cc1ccc(C(C)C(=O)O)cc1 (stereo not shown) [Ibuprofen]
- CC50 (in vitro [1]; absence of virus): > 100 µM
- CC50 (in vitro [2]; CC50 Vero E6, absence of virus): > 100 µM
- ACE2 expression after anti-inflammatory drugs (in words) (ACE2 expression): no effect on ACE2 expression

Molecule: GM-CSF
- ACE2 expression in enriched AT-II cells after immune stimuli (in words) (ACE2 expression): did not impact ACE2 protein production

Molecule: C[C@]12C=CC(=O)C=C1CC[C@@H]1[C@@H]2C(=O)C[C@@]2(C)[C@H]1CC[C@]2(O)C(=O)CO [Prednisone]
- CC50 (in vitro [1]; absence of virus): > 100 µM
- CC50 (in vitro [2]; CC50 Vero E6, absence of virus): > 100 µM
- ACE2 expression after anti-inflammatory drugs (in words) (ACE2 expression): no effect on ACE2 expression

Molecule: CN(C)C(=O)COC(=O)Cc1ccc(OC(=O)c2ccc(NC(=N)N)cc2)cc1 [Camostat, Camostat mesylate]
- CC50 (in vitro [1]): > 100 µM
- expression of CXCL10 in CD11b+CD14- myeloid cells (in words) [3]: significantly reduced
- expression of IL-6 in CD11b+CD14+ myeloid cells (in words) [3]: significantly reduced
- activity in precision-cut lung slices (in words) (SARS-CoV-2; 0.5µM, ref Hoffmann et al, EBiomedicine 2021): non-active
- inhibition, donor 1 (SARS-CoV-2; [6]): 40%
- inhibition, donor 2 (SARS-CoV-2; [6]): 60%
- inhibition in precision-cut lung slices (SARS-CoV-2; 10µM, ref Hoffmann et al, EBiomedicine 2021): approx. 40%
- CC50 (in vitro [2]; CC50 Vero E6): > 100 µM
- clinical benefit (in words) (COVID-19 patients; COVID-19 patients receiving camostat within the first 48h of admission): no significant benefit

Molecule: Nc1ncnc2c1ncn2[C@@H]1O[C@H](CO)[C@@H](O)[C@@H]1O [Vidarabine]
- CC50 (in vitro [1]; absence of virus): > 100 µM
- CC50 (in vitro [2]; CC50 Vero E6, absence of virus): > 100 µM
- inhibition of viral DNA polymerases relative to those of host cells [4]: Purine nucleoside analogue ^80. Competitively inhibits DNA-dependent DNA polymerases of some DNA viruses approximately 40 times more than those of host cells ^80.

Molecule: Ivermectin
- expression of cytokines in the HLT inflammation model (in words) [3]: did not affect the expression of cytokines
- CC50 (HLT cells): ~100 µM
- proportion of PCR-positive patients (in words) (COVID-19 patients; seven days after treatment): failed to show a reduction
- CC50 (VeroE6 cells): 20.2 µM

Molecule: CC(C)C(=O)OCC(=O)[C@@]12O[C@H](C3CCCCC3)O[C@@H]1C[C@H]1[C@@H]3CCC4=CC(=O)C=C[C@]4(C)[C@H]3[C@@H](O)C[C@@]12C [Ciclesonide]
- CC50 (in vitro [1]; absence of virus): > 100 µM
- expression of CXCL10 in CD11b+CD14- myeloid cells (in words) [3]: induced CXCL10 secretion
- CC50 (in vitro [2]; CC50 Vero E6, absence of virus): > 100 µM

Molecule: CCN(CCO)CCCC(C)Nc1ccnc2cc(Cl)ccc12 (stereo not shown) [Hydroxychloroquine]
- CC50 (in vitro [1]; absence of virus): > 100 µM
- cytotoxicity in HLT (in words) (HLT cells; up to 100μM): no apparent cytotoxicity
- CC50 (in vitro [2]; CC50 Vero E6, absence of virus): > 100 µM
- effectiveness as a treatment for COVID-19 (in words) (COVID-19 patients; clinical trials): failed to show effectiveness
- viral replication of replication-competent SARS-CoV-2 in HLT cells (in words) [5]: effective
- cytotoxicity in VeroE6 (in words) (VeroE6 cells; up to 100μM): no apparent cytotoxicity

Molecule: Ergoloid mesylates
- expression of cytokines in CD11b+CD14+ myeloid cells (in words) [3]: significantly reduced the expression of cytokines
- cell toxicity in HLT cells (HLT cells; 20 μM, 48h): > 60%
- CC50 (HLT cells): ~100 µM
- CC50 (VeroE6 cells): 18.7 µM

Molecule: COc1ccc2cc1Oc1ccc(cc1)C[C@H]1c3c(cc4c(c3Oc3cc5c(cc3OC)CCN(C)[C@@H]5C2)OCO4)CCN1C [Cepharanthine]
- CC50 (in vitro [1]; absence of virus): 13.8 µM
- expression of IL-6 in CD11b+CD14+ myeloid cells (in words) [3]: reduced IL-6 production
- CC50 (HLT cells): 16.1 µM
- CC50 (in vitro [2]; CC50 Vero E6, absence of virus): 22.3 µM
- CC50 (VeroE6 cells): 22.4 µM

Molecule: C[C@]12CCC(=O)C=C1CC[C@@H]1[C@@H]2[C@@H](O)C[C@@]2(C)[C@H]1CC[C@]2(O)C(=O)CO [Cortisol]
- CC50 (in vitro [1]; absence of virus): > 100 µM
- CC50 (in vitro [2]; CC50 Vero E6, absence of virus): > 100 µM
- ACE2 expression after anti-inflammatory drugs (in words) (ACE2 expression): no effect on ACE2 expression

Molecule: IL-1β
- ACE2 expression in enriched AT-II cells after immune stimuli (in words) (ACE2 expression): decreased the fraction of AT-II cells expressing ACE2

B1: IL-10 (protein, UniProt P22301 19-178, looked up)
Interleukin-10: SPGQGTQSENSCTHFPGNLPNMLRDLRDAFSRVKTFFQMKDQLDNLLLKESLLEDFKGYLGCQALSEMIQFYLEEVMPQAENQDPDIKAHVNSLGENLKTLRLRLRRCHRFLPCENKSKAVEQVKNAFNKLQEKGIYKAMSEFDIFINYIEAYMTMKIRN
- ACE2 expression in enriched AT-II cells after immune stimuli (in words) (ACE2 expression): did not impact ACE2 protein production
